From patent US20110301162A1, “AURORA KINASE MODULATORS AND METHODS OF USE” (AMGEN INC., priority 2008, published 2011)

Columns and labels:
AuroraA-TPX2 = target: T1, AuroraA-TPX2 (Homo sapiens, UniProt O14965); assay: AuroraA-TPX2 Homogeneous Time Resolved Fluorescent (HTRF) kinase assay; type: biochemical; details: average; ATP about 1 μM; read-out: AurA_IC50_IP (uM Avg)
T1 construct: 20 μL of AuroraA-TPX2 KD GST; GST
T1 sequence (O14965 133-383 limits assumed): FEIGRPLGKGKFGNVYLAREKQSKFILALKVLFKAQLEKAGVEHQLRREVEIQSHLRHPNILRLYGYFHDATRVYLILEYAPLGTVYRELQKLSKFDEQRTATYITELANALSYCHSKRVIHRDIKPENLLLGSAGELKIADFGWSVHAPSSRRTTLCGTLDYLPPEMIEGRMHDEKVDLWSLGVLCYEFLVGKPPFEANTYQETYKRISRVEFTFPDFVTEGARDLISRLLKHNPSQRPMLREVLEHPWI
T1 sequence (Q9ULW0 1-43 partner limits assumed): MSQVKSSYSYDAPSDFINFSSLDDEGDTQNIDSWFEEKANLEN
Procedure: The Aurora-A HTRF assay begins with Aurora-A in the presence of ATP phosphorylating the biotinylated peptide PLK. The reaction incubates for about 120 min. Detection reagents are added to quench the reaction. These agents stop the reaction by diluting out the enzyme and chelating the metals due to the presence of EDTA. After addition, the assay is incubated overnight to allow the detection reagents to equilibrate.
The AuroraA HTRF assay comprises 1 μL of compound in 100% DMSO, 20 μL of ATP and biotinylated PLK, and 20 μL of AuroraA-TPX2 KD GST for a final volume of about 41 μL. The final concentration of PLK is about 1 μM. The final concentration of ATP is about 1 μM (Km(app)=1 μM+/−0.1) and the final concentration of AuroraA is about 5 nM. Buffer conditions are as follows: 60 mM HEPES pH 7.5, 25mM NaCl, 10 mM MgCl, 2 mM DTT, 0.05% BSA.
(§1) The assay is quenched and stopped with 160 μL of detection reagent. Detection reagents are as follows: Buffer made of 50 mM Tris, pH 7.5, 100 mM NaCl, 3 mM EDTA, 0.05% BSA, 0.1% Tween20. Added to this buffer prior to reading is Steptavidin allophycocyanin (SA-APC) at a final conc in the assay of 0.0005 mg/mL, and europilated anti-phosphoPLK Ab (Eu-anti-PLK) at a final conc of 0.02 nM.
(§2) The assay plate is read in either a Discovery or a RubyStar. The eu-anti-PLK is excited at 320 nm and emits at 615 nm to excite the SA-APC which in turn emits at 655 nm. The ratio of SA-APC at 655 nm (excited due to close proximity to the Eu-anti-PLK because of phosphorylation of the peptide) to free Eu-anti-PLK at 615 nm will give substrate phosphorylation.
Many of the Examples described herein were tested and found to be active compounds. Table I includes related biological data, which may be interpreted using the activity gauge below.

AuroraB = target: T2, AuroraB (Homo sapiens, UniProt Q96GD4); assay: AuroraB Homogeneous Time Resolved Fluorescent (HTRF) kinase assay; type: biochemical; details: average; ATP 23 μM; read-out: AurB_IC50_IP (uM Avg)
T2 construct: 20 μL of AuroraB FL His; His
Procedure: The AuroraB HTRF assay begins with AuroraB in the presence of ATP phosphorylating the biotinylated peptide Histone H3. The reaction incubates for about 90 min. the reaction is quentched by addition of detection reagents, which stop the reaction by diluting out the enzyme and chelating the metals due to the presence of EDTA. After addition, the assay is incubated for about 60 min to allow detection reagents to equilibrate.
The AuroraB HTRF assay comprises 1 μL of compound in 100% DMSO, 20 μL of ATP and biotinylated Histone H3, and 20 μL of AuroraB FL His for a final volume of 41 μL. The final concentration of Histone H3 is 0.1 μM. The final concentration of ATP is 23 μM (Km(app)=23 μM+/−2.6) and the final concentration of AuroraB is 400 pM. Buffer conditions are as follows: 50 mM HEPES pH 7.5, 5 mM NaCl, 0.5 mM MgCl, 0.5 mM MnCl, 2 mM DTT, 0.05% BSA.
as §1, with “0.001” for “0.0005”, “anti-phosphoHistoneH3” for “anti-phosphoPLK”, “(Eu-anti-HisH3)” for “(Eu-anti-PLK)”, “0.064” for “0.02”
as §2, with “eu-anti-HisH3” for “eu-anti-PLK”, “Eu-anti-HisH3” for “Eu-anti-PLK”
Many of the Examples described herein were tested, and fund to be active compounds. Table I includes related biological data, which may be interpreted using the activity gauge below.

HeLa cells = assay: HeLa cell 24 hr ploidy assay; type: cell-based; details: Homo sapiens, 24 hrs treatment, DNA ploidy, average, read-out: 24h_4N Ploidy EC50_IP (uM Avg)
Procedure: The purpose of this assay is to evaluate the ability of selected individual compounds to induce Deoxyribonucleic acid (DNA) content (ploidy) in cells through failed cell division. Cell cycle analysis is a rapid and efficient way to evaluate the status of DNA content (ploidy) of a given cell. HeLa cells (1×10^4 HeLa cells/well) in 100 ul of media (MEM+10% FBS) were plated in 96-well plates (Packard View) and cultured for 24 hrs at 37° C. maintained in a 5% CO2 atmosphere. The following day, cells were treated for 24 hrs with inhibitor compounds (10 pt. Dose ranging from 0.0024-1.25 umol/L). The compounds were serially diluted in DMSO (0.25% final concentration). The cells were fixed (3.7% Formaldehyde and 1% glutaraldehyde) and permeabilized (1×PBS with 1% BSA an d0.2% Triton X-100) in preparation for nuclear staining. The well plates were stained for 45 minutes at RT in the dark using Hoechest 33342 nuclear stain at 0.5 ug.ml (Stock of 10 mg/ml, Invitrogen, Calif., Cat #H3570). The nuclear stain was removed by aspiration and the cells were washed with wash buffer. A Cellomics Array Scan Vti plate reader was used to acquire the DNA ploidy data of the cells using Cell Cycle bioapplication. Numbers for each of “valid cell count/well”, “% of 4N cells” and “% of >4Ncells” were calculated with the assistance of an Activity Base 5.1ca software and dose curves were generated using an XLFit software. With XLFit, final EC50 IP and EC50 transit values, as well as the Max and Min, were calculated for each curve.

T2 sequence (Q96GD4 whole entry): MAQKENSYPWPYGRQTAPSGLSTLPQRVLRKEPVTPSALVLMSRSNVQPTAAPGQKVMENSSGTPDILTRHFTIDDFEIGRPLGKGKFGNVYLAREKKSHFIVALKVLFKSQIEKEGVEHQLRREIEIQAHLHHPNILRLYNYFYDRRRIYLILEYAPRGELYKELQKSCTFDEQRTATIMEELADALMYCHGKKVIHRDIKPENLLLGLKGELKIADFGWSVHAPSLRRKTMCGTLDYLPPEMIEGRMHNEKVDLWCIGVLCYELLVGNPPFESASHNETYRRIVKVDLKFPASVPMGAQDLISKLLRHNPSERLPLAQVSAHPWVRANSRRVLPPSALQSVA

IC50 (AuroraA-TPX2) | IC50 (AuroraB) | EC50 (HeLa cells) | Compound
0.1 to 0.5 µM | < 0.1 µM | < 0.1 µM | Clc1ccc(-c2nnc(Nc3ccc(Oc4ccnc(-c5nc6ccccc6[nH]5)c4)cc3)c3ccccc23)cc1 [Example 38, N-(4-((2-(1H-benzimidazol-2-yl)-4-pyridinyl)oxy)phenyl)-4-(4-chlorophenyl)-1-phthalazinamine]
0.1 to 0.5 µM | < 0.1 µM | 0.1 to 0.5 µM | Cc1ccc(-c2nnc(Nc3ccc(Sc4ccnc(-c5cc6ccccc6[nH]5)n4)cc3)c3ccccc23)cn1 [Example 39, N-(4-((2-(1H-indol-2-yl)-4-pyrimidinyl)sulfanyl)phenyl)-4-(6-methyl-3-pyridinyl)-1-phthalazinamine]
0.1 to 0.5 µM | < 0.1 µM | 0.1 to 0.5 µM | O=C(Nc1cc(Oc2ccc(Nc3nnc(-c4ccccc4)c4ccccc34)cc2F)ccn1)N1CCOCC1 [Example 44, N-(4-((2-fluoro-4-((4-phenyl-1-phthalazinyl)amino)phenyl)oxy)-2-pyridinyl)-4-morpholinecarboxamide]
